Where “and” joins values, the source holds several entries; their conditions need not be identical. Equal values may be shown once.
Experiments:
[1] = biological target: Beta-2 adrenergic receptor (Homo sapiens, UniProt P07550); type: functional, cell-based
Androgen receptor = biological target: T1, Androgen receptor (Rattus norvegicus, UniProt P15207); type: functional
T1 sequence (P15207 whole entry): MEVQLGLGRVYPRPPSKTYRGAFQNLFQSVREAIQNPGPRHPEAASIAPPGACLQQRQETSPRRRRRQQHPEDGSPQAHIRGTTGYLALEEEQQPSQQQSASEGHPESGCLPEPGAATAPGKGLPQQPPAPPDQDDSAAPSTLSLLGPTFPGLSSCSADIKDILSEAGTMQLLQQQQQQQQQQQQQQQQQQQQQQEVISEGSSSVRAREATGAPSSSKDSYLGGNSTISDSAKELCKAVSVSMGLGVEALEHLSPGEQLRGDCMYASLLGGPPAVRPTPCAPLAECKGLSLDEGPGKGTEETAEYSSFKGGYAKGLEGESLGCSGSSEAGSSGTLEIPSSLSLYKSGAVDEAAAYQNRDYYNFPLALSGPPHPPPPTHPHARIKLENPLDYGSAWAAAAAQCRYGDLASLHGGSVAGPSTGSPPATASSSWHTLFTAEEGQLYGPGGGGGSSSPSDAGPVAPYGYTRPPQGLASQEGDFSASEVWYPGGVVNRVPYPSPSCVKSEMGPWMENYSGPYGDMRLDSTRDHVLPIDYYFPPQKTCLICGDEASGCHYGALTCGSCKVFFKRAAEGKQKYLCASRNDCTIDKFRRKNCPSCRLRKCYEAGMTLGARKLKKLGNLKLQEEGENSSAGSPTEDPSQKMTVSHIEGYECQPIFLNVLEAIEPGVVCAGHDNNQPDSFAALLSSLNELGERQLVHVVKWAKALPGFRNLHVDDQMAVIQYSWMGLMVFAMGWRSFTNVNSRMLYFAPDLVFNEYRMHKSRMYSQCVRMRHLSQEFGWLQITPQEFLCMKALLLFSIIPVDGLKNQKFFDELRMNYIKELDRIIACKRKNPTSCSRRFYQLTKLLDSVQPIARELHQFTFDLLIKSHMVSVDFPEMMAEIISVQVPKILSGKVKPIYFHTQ

[2] = biological target: T2, Alpha-1A adrenergic receptor (Homo sapiens, UniProt P35348)
T2 sequence (P35348 whole entry): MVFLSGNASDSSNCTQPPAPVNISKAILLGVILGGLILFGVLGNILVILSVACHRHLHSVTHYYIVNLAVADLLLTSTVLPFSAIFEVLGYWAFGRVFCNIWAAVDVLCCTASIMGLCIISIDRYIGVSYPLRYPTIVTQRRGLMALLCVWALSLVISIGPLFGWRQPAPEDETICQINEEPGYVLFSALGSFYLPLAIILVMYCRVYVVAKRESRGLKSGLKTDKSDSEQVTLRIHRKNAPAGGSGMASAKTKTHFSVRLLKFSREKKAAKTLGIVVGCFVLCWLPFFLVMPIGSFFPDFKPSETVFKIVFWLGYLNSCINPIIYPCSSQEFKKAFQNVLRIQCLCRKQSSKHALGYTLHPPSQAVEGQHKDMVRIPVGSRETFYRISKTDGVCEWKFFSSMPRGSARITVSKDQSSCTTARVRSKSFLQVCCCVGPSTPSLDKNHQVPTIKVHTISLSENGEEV

[3] = biological target: T3, Alpha-2A adrenergic receptor (Homo sapiens, UniProt P08913)
T3 sequence (P08913 whole entry): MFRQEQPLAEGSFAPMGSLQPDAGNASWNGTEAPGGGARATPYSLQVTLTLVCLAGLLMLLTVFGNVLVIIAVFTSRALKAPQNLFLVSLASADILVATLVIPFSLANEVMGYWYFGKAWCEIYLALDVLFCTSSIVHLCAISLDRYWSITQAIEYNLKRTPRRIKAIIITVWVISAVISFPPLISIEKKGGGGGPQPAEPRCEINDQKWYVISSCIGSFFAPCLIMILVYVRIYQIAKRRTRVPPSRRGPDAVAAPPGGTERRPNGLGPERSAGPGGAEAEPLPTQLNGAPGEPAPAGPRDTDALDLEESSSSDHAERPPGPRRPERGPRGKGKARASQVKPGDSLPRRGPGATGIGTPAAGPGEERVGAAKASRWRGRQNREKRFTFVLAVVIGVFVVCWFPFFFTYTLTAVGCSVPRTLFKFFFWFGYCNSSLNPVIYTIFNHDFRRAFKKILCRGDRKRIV

[4] = biological target: T4, Peroxisome proliferator-activated receptor gamma (Homo sapiens, UniProt P37231); type: functional
T4 sequence (P37231 whole entry): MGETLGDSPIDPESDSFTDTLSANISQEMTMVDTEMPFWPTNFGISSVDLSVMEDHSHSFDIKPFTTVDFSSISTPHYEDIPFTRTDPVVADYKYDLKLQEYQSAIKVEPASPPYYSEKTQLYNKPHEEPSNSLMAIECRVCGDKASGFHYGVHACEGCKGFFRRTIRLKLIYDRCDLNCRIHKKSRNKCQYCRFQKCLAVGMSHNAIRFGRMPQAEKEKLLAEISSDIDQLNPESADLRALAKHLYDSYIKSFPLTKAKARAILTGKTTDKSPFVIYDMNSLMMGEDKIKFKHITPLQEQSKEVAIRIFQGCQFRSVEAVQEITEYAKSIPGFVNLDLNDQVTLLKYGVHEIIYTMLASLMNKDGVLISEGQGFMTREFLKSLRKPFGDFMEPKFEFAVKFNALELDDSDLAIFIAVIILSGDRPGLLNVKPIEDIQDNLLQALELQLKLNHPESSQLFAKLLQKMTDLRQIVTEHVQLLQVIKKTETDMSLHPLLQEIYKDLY

[5] = biological target: Gamma-aminobutyric acid receptor subunit alpha-1/alpha-2/beta-2/gamma-2 (Homo sapiens, UniProt P14867+P18507+P47869+P47870); type: functional, cell-based
Chain of Gamma-aminobutyric acid receptor subunit alpha-1/alpha-2/beta-2/gamma-2 (P14867 whole entry): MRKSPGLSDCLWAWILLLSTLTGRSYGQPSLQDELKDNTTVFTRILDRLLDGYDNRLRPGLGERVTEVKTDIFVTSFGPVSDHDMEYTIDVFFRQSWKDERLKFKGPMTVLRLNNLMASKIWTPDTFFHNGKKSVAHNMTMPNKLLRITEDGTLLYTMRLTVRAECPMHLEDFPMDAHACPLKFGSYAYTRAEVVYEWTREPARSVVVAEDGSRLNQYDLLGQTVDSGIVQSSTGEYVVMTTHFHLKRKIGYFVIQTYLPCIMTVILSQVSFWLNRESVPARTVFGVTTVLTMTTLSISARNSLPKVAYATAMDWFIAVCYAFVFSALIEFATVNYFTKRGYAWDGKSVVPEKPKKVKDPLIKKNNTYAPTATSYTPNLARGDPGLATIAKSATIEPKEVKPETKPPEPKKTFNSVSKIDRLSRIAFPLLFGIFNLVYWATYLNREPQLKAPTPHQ
Chain of Gamma-aminobutyric acid receptor subunit alpha-1/alpha-2/beta-2/gamma-2 (P47870 whole entry): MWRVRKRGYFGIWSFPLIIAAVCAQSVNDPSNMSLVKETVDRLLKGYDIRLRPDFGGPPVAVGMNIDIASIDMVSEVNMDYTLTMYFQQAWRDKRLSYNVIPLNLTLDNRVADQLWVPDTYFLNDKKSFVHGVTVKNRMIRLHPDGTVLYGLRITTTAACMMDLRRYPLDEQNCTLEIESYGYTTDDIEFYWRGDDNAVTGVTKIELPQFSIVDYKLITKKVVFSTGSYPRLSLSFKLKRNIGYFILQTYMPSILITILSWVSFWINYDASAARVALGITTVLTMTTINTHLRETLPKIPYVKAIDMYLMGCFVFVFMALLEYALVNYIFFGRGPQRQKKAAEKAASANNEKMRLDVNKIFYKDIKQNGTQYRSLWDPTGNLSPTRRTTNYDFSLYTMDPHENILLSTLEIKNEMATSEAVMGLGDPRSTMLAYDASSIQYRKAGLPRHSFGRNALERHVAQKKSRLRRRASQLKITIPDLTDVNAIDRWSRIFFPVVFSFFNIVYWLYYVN
Chain of Gamma-aminobutyric acid receptor subunit alpha-1/alpha-2/beta-2/gamma-2 (P18507 whole entry): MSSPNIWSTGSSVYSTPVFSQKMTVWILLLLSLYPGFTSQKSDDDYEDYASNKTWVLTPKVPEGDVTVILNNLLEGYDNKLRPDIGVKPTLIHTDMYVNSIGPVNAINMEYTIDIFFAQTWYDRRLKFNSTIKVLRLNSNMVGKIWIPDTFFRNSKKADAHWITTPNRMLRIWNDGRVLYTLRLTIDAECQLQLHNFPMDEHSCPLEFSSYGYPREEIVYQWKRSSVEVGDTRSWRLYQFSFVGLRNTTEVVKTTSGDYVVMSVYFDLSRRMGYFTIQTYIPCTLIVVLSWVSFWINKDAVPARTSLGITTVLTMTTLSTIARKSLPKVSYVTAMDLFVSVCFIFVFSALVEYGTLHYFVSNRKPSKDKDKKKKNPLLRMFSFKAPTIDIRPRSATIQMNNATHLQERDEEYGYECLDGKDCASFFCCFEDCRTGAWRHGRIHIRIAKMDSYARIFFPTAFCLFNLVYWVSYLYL
Chain of Gamma-aminobutyric acid receptor subunit alpha-1/alpha-2/beta-2/gamma-2 (P47869 whole entry): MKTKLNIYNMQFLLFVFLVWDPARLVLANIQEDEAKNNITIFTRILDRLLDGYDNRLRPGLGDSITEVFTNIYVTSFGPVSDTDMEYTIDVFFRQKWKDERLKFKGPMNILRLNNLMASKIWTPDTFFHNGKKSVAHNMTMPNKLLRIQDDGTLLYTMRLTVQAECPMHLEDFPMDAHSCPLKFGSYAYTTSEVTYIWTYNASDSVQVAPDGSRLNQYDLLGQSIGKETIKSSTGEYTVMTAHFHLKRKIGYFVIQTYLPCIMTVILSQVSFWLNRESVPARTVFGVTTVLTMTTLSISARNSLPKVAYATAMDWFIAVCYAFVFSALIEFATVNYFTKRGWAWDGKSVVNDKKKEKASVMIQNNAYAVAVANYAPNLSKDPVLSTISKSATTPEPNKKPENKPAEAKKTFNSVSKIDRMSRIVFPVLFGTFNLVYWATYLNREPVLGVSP
Further: assay procedure not described here.

N#Cc1ccccc1-c1cc(-c2ccccn2)cn(-c2ccccc2)c1=O
AC50 [1]: > 30 µM | AC50 (Androgen receptor): > 30 µM

N=C(N)NCCCCCCC(=O)NC(O)C(=O)NCCCCNCCCN (stereo not given)
AC50 [1]: > 30 µM

COc1ccc(/C=C/C(=O)Nc2ccccc2C(=O)O)cc1OC
AC50 [2]: 18 µM | AC50 (Androgen receptor): > 30 µM

C=C[C@@]1(C)CC(=O)[C@]2(O)[C@@]3(C)[C@@H](O)CCC(C)(C)[C@@H]3[C@H](OC(=O)CCN(C)C)[C@H](OC(C)=O)[C@@]2(C)O1
AC50 (Androgen receptor): > 30 µM

NCCCC(O)(P(=O)(O)O)P(=O)(O)O [ALENDRONIC ACID]
AC50 [3]: > 10 µM | AC50 [2]: > 10 µM

Nc1ccc(C(=O)O)c(O)c1 [AMINOSALICYLIC ACID]
AC50 [1]: > 30 µM | AC50 (Androgen receptor): > 30 µM

CC(=O)OCC(=O)[C@@]1(O)CC[C@H]2[C@@H]3CCC4=CC(=O)CC[C@]4(C)C3=CC[C@@]21C [ANECORTAVE ACETATE]
AC50 [2]: > 10 µM

NS(=O)(=O)c1cc2c(cc1C(F)(F)F)NC(Cc1ccccc1)NS2(=O)=O (stereo not given) [BENDROFLUMETHIAZIDE]
AC50 [2]: > 10 µM

COc1cc(OC)c(C(=O)CCCN2CCCC2)c(OC)c1 [BUFLOMEDIL]
AC50 (Androgen receptor): > 30 µM

CS(=O)(=O)OCCCCOS(C)(=O)=O [BUSULFAN]
AC50 [1]: > 30 µM | AC50 [4]: > 30 µM

CCCCCCNC(=O)n1cc(F)c(=O)[nH]c1=O [CARMOFUR]
AC50 [2]: > 30 µM

C=CC1=C(C(=O)O)N2C(=O)[C@@H](NC(=O)/C(=N\OCC(=O)O)c3csc(N)n3)[C@H]2SC1 [CEFIXIME]
AC50 [1]: > 30 µM | AC50 [4]: > 30 µM

CO[C@@]1(NC(=O)Cc2cccs2)C(=O)N2C(C(=O)O)=C(COC(N)=O)CS[C@@H]21 [CEFOXITIN]
AC50 [1]: > 30 µM | AC50 [4]: > 30 µM

CCN(CC)CCOC(=O)c1ccc(N)cc1Cl [CHLOROPROCAINE]
AC50 [1]: > 30 µM | AC50 [5]: > 30 µM | AC50 [4]: > 30 µM

CC(C)(C)NCC(O)c1cc(Cl)c(N)c(Cl)c1 (stereo not given) [CLENBUTEROL]
AC50 [2]: 13 µM | AC50 (Androgen receptor): > 30 µM

CCC(C)(Oc1ccc(C2(c3ccc(OC(C)(CC)C(=O)O)cc3)CCCCC2)cc1)C(=O)O (stereo not given) [CLINOFIBRATE]
AC50 (Androgen receptor): > 30 µM

COc1cccc2c1C(=O)c1c(O)c3c(c(O)c1C2=O)C[C@@](O)(C(C)=O)C[C@@H]3O[C@H]1C[C@H](N)[C@H](O)[C@H](C)O1 [DAUNORUBICIN]
AC50 [1]: > 30 µM | AC50 [4]: > 30 µM

C[C@@H]1C[C@H]2[C@@H]3C[C@H](F)C4=CC(=O)C=C[C@]4(C)[C@@]3(F)[C@@H](O)C[C@]2(C)[C@H]1C(=O)CO [DIFLUCORTOLONE]
AC50 (Androgen receptor): 2.6 µM

CCCCC[C@H](O)/C=C/[C@H]1[C@H](O)CC(=O)[C@@H]1C/C=C\CCCC(=O)O [DINOPROSTONE]
AC50 (Androgen receptor): > 30 µM

COC(=O)N[C@@H](C)CNc1nccc(-c2cn(C(C)C)nc2-c2cc(Cl)cc(NS(C)(=O)=O)c2F)n1 [ENCORAFENIB]
AC50 [2]: > 30 µM | AC50 (Androgen receptor): > 30 µM

Clc1ccc2c(c1)C(c1ccccc1)=NCc1nncn1-2 [ESTAZOLAM]
AC50 [2]: > 10 µM

CC(=O)OCC(CCn1cnc2cnc(N)nc21)COC(C)=O [FAMCICLOVIR]
AC50 [3]: > 10 µM | AC50 [1]: > 30 µM | AC50 [2]: 11.6 µM

O=C(O)c1ccccc1OP(=O)(O)O [FOSFOSAL]
AC50 [1]: > 30 µM | AC50 [5]: > 30 µM | AC50 [4]: > 30 µM

Nc1ccn([C@@H]2O[C@H](CO)[C@@H](O)C2(F)F)c(=O)n1 [GEMCITABINE]
AC50 [2]: > 10 µM

C#C[C@]1(O)CC[C@H]2[C@@H]3CCC4=CC(=O)CCC4=C3C=C[C@@]21CC [GESTRINONE]
AC50 [1]: > 30 µM

CCCCCCOC(=O)CCC(=O)CN [HEXAMINOLEVULINATE]
AC50 [1]: > 30 µM | AC50 (Androgen receptor): > 30 µM

COC1=C(OC)C(=O)C(CCCCCCCCCCO)=C(C)C1=O [IDEBENONE]
AC50 [3]: > 10 µM | AC50 [1]: > 30 µM | AC50 [2]: > 10 µM

Nc1nc2c(c(=O)[nH]1)N(C=O)C(CNc1ccc(C(=O)N[C@@H](CCC(=O)O)C(=O)O)cc1)CN2 (stereo not given in full) [LEUCOVORIN]
AC50 [1]: > 30 µM | AC50 (Androgen receptor): > 30 µM | AC50 [4]: > 30 µM

CC(C)OC(=O)C(C(=O)OC(C)C)=C1SC=CS1 [MALOTILATE]
AC50 (Androgen receptor): > 30 µM

CC(=O)Nc1c(I)c(C(=O)N[C@H]2C(O)O[C@H](CO)[C@@H](O)[C@@H]2O)c(I)c(N(C)C(C)=O)c1I (stereo not given in full) [METRIZAMIDE]
AC50 [2]: > 10 µM

O=C1CN=C(c2ccccc2)c2cc(Cl)ccc2N1 [NORDAZEPAM]
AC50 [3]: > 10 µM | AC50 [1]: > 30 µM | AC50 [2]: > 10 µM

CC(=O)O[C@H]1C[C@@H]2CC[C@@H]3[C@H](CC[C@@]4(C)[C@H]3C[C@H]([N+]3(C)CCCCC3)[C@@H]4OC(C)=O)[C@@]2(C)C[C@@H]1[N+]1(C)CCCCC1 [PANCURONIUM]
AC50 [2]: > 10 µM

CCn1cc(C(=O)O)c(=O)c2cc(F)c(N3CCN(C)CC3)cc21 [PEFLOXACIN]
AC50 [1]: > 30 µM | AC50 [4]: > 30 µM

CC1(C)C(C=C(Cl)Cl)C1C(=O)OCc1cccc(Oc2ccccc2)c1 (stereo not given) [PERMETHRIN]
AC50 [3]: > 10 µM | AC50 [2]: > 10 µM

C[n+]1ccccc1/C=N/O [PRALIDOXIME]
AC50 [1]: > 30 µM

CCCNC(C)C(=O)Nc1ccccc1C (stereo not given) [PRILOCAINE]
AC50 [1]: > 30 µM | AC50 [4]: > 30 µM

CCN(CC)CC(=O)Oc1ccc(NC(C)=O)cc1 [PROPACETAMOL]
AC50 (Androgen receptor): > 30 µM

Cc1cc2nc3c(=O)[nH]c(=O)nc-3n(C[C@H](O)[C@H](O)[C@H](O)COP(=O)(O)O)c2cc1C [RIBOFLAVIN 5'-PHOSPHATE]
AC50 [1]: 2.9 µM | AC50 (Androgen receptor): > 30 µM

CC(NCCc1ccc(O)cc1)C(O)c1ccc(O)cc1 (stereo not given) [RITODRINE]
AC50 [2]: 10 µM and 1.54 µM

CC(C)CC(N(C)C)C1(c2ccc(Cl)cc2)CCC1 (stereo not given) [SIBUTRAMINE]
AC50 [3]: > 10 µM

[H]/N=C(/N)N[C@H]1[C@H](O)[C@@H](O)[C@H](O[C@@H]2O[C@@H](C)[C@](O)(C=O)[C@H]2O[C@@H]2O[C@@H](CO)[C@H](O)[C@@H](O)[C@@H]2NC)[C@@H](N/C(N)=N\[H])[C@@H]1O [STREPTOMYCIN]
AC50 [3]: > 10 µM | AC50 [2]: > 10 µM

COc1c(O[C@@H]2O[C@H](CO)[C@@H](O)[C@H](O)[C@H]2O)cc2c(c1OC)-c1ccc(SC)c(=O)cc1[C@@H](NC(C)=O)CC2 [THIOCOLCHICOSIDE]
AC50 [1]: > 30 µM

Cc1cccc(N(C)C(=S)Oc2ccc3ccccc3c2)c1 [TOLNAFTATE]
AC50 [2]: > 30 µM

COc1ccc(C(CN(C)C)C2(O)CCCCC2)cc1 (stereo not given) [VENLAFAXINE]
AC50 [3]: > 10 µM | AC50 [1]: > 30 µM

C=CC(N)CCC(=O)O (stereo not given) [VIGABATRIN]
AC50 [2]: > 10 µM

COLISTIN
AC50 [1]: > 30 µM

— ChEMBL document CHEMBL5291721, “A preclinical secondary pharmacology resource illuminates target-adverse drug reaction associations of marketed drugs” (Nat Commun, 2023)
